Experimental data as given in patent US5314890A, “1-7 disubstituted xanthine derivatives having antiasthmatic activity, their physiologically acceptable salts, pharmaceutical compositions containing them and process for their preparation” (priority 1990, dated 1994).
pIC50: −log10 of the molar value. Read-outs that look alike come from different tables or passages of the source.

Columns and labels:
[1] = system: isolated guinea pig bronchi; assay: "In vitro" antibronchospastic activity in isolated guinea pig bronchi; type: cell-based; settings: Cavia porcellus
Protocol: A steady tonic bronchomotor response was produced by administration of carbachol (0.3 μM) or capsaicin (0.3 μM, in presence of thiorphan 10 μM) on which a concentration-response curve with the various xanthine derivatives was carried out.

male Swiss mice [2] = assay: Pentylentetrazol-induced lethality in mice; type: in vivo; settings: 0.55 mmol/kg orally, 1 h before PTZ (60-75 mg/kg i.p.); controls 10%
Protocol: The drugs were administered orally (0.55 mmol/kg) in a volume of 20 ml/kg 1 h before PTZ. CNS excitation was valued as increase of PTZ mortality.

[3] = Antibronchospastic / bronchodilatory activity, general statement (laboratory tests by the Applicant)
male Swiss mice [4] = assay: Chlordiazepoxide-induced sleep in mice; type: in vivo, mouse; settings: 0.55 mmol/kg orally, 1 h before CDO (100 mg/kg i.p.); controls 27.1 ± 3.5 min; * p < 0.01
Protocol: Starved (20 h) male Swiss mice (20 g body weight) were injected with chlordiazepoxide (CDO) (100 mg/kg i.p.) and the duration of the induced sleep assessed. Sleeping time was defined as the time elapsing from the loss to the recovery of the righting reflex. The drugs were administered orally (0.55 mmol/kg) in a volume of 20 ml/kg 1 h before CDO. CNS excitation was valued as decrease in sleeping time (Table 4).

sensitized guinea-pigs = assay: Antagonism toward antigen-induced bronchospasm in sensitized guinea-pigs; type: in vivo, guinea pig; settings: 0.55 mmol/kg orally, 1 hour before 0.5% ovalbumin aerosol; mean ± s.e.m.; control 8.4 ± 0.8; * p < 0.05
Protocol: Guinea-pigs (sensitized with 100 mg/kg s.c. plus 100 mg/kg i.p. of ovalbumin 14 days before) (Herxheimer and Streseman-Arch. Int. Pharmacodyn. Ther. 125, 265; 1960) were challenged by an aerosol of 0.5% ovalbumin, for a period of 10 sec. in a closed chamber.
In a first set of experiments, number of aerosol-induced bronchospasms was registered in control conditions or 1 hr after the oral administration of testing substances.

[5] = Goodman and Gilman, 1985; cited from earlier work
[6] = system: anaesthetized guinea pigs; assay: Antagonism toward acetylcholine- and capsaicin-induced bronchomotor effects in anaesthetized guinea-pig; type: in vivo; settings: 70 μmol/kg i.v., mean ± s.e.m.; for inhibition percentage of acetylcholine (Ach) induced bronchospasm: 15 min before acetylcholine 25 μg/kg; for inhibition percentage of capsaicin (Caps) induced bronchospasm: 15 min before capsaicin 2.5 μg/kg
Protocol: Anaesthetized guinea-pig were used D-Tubocurarine (3 mg/kg i.v.) was administered, and a mechanic ventilation (60 strokes/min) with a pump through a tracheal cannula was carried out Drugs were administered intravenously in a volume less than 0.5 ml/kg through a jugular cannula. Acetylcholine (25 μg/kg) or capsaicin (2.5 μg/kg) administration evoked a powerful and transient increase in tracheal insufflation pressure which was repeatable after 30 min. […] Antibronchospastic activity was expressed as inhibition percentage referred to the first increase of tracheal insufflation pressure.

[7] = Acute oral toxicity in mice; settings: mouse, in vivo, starved male Swiss mice, observed 10 days, Litchfield and Wilcoxon
Protocol: Starved (18 h) male Swiss mice (20 g weight) received drugs orally (0.2 ml/10 g weight).
Death and symptoms were evaluated LD50 was obtained according to Litchfield and Wilcoxon (J. Pharm. Expt. Ther. 96, 99, 1949).

[8] = system: anaesthetized guinea pigs (sensitized); assay: Antagonism toward ovoalbumin induced bronchomotor effects in anaesthetized guinea pigs; type: in vivo, guinea pig; settings: 140 μmol/Kg i.v., 15 min before OA aerosol 0.5% for 20 s; for % inhibition of OA-induced bronchospasm referred to control group: N.A. = not active; for changes in pulmonary insufflation pressure after OA aerosol: controls 1.80 ± 0.15 KPa
Protocol: Antagonism toward ovoalbumin induced bronchomotor effects in anaesthetized guinea pigs.
Anaesthetized guinea pigs (sensitized with 100 mg/Kg s.c. plus 100 mg/Kg i.p. of ovoalbumin (OA) 14 days before tests) were used as described previously although bronchospasm was produced by OA intratracheal aerosol administration (0.5% for 20 s.).
Antibronchospastic activity was expressed as changes in pulmonary insufflation pressure (KPa) after OA aerosol administration and as inhibition percentage referred to control group.

[9] = isolated guinea pig bronchi, capsaicin 0.3 μM with thiorphan 10 μM, 95% C.L. in brackets, read-out: IC50, capsaicin-induced tone
[10] = isolated guinea pig bronchi, carbachol 0.3 μM, 95% C.L. in brackets, read-out: IC50, carbachol-induced tone

Row | SMILES | pIC50 ([1]; read-out: IC50, capsaicin-induced tone) | pIC50 ([1]; read-out: IC50, carbachol-induced tone) | PTZ test mortality rate (male Swiss mice [2]) [%] | antibronchospastic / bronchodilatory activity (in words) [3] | CDO test sleeping-time (male Swiss mice [4]) [min] | number of bronchospasms recorded in 5 minutes (bronchospasm/min) (sensitized guinea-pigs) | pIC50 [1, 9] | pIC50 [1, 10] | side effects (in words) [5] | inhibition percentage of acetylcholine (Ach) induced bronchospasm [6] [%] | inhibition percentage of capsaicin (Caps) induced bronchospasm [6] [%] | LD50 at 240 h [7] [mg/kg] | % inhibition of OA-induced bronchospasm referred to control group [8] [%] | changes in pulmonary insufflation pressure after OA aerosol [8] [KPa]
1 | Cn1c(=O)[nH]c2ncn(C)c2c1=O [Paraxanthine, 1,7-dimethyl-xanthine] | 4.09 | 3.87 | 82 | does not show any significant antibronchospastic activity | 2.3 ± 1.5 |  |  |  |  |  |  |  |  | 
2 | Cn1c(=O)c2[nH]cnc2n(C)c1=O [Theophylline, 1,3-dimethyl-xanthine, reference compound] |  |  |  |  | 7.8 ± 2.2 | 4.6 ± 1.2 | 4.40 | 4.04 | side effects on the cardiovascular system and on the central nervous system | 51 ± 8 | 51 ± 7 |  |  | 
3 | CC(C)Cn1cnc2[nH]c(=O)n(C)c(=O)c21 [1-methyl-7-isobutyl-xanthine] |  |  | 20 |  | 26.1 ± 3.3 | 5.0 ± 1.1 | 4.68 | 4.51 |  | 54 ± 5 | 52 ± 3 | 303 | 86 | 0.25 ± 0.08
4 | Cn1c(=O)[nH]c2ncn(CC(C)(C)O)c2c1=O [1-methyl-7-(2-methyl-2-hydroxy-propyl)-xanthine] |  |  | 0 |  | 64.2 ± 12.8 |  |  |  |  |  |  |  | 36 | 1.15 ± 0.15
